How the values were obtained:
[1] = tested on: rodent brain contusion model; experiment: rodent brain contusion model; format: in vivo; settings: given 1 hour after the insult
Description: (§1) MBG is elevated in preeclampsia and traumatic brain injury. It has been shown that the administration of the antagonist of MBG, resibufagenin (RBG) is therapeutically effective. […] RBG antagonizes MBG activity and may be an effective treatment for hypertension, ARDS, traumatic brain injury, and preeclampsia.

[2] = tested on: animal models of preeclampsia; experiment: preeclampsia in animal models; format: in vivo
Description: as §1

[3] = in vitro; cited from earlier work

C[C@]12CC[C@H](O)C[C@H]1CC[C@@H]1[C@@H]2CC[C@]2(C)[C@@H](c3ccc(=O)oc3)C[C@H]3O[C@]132 [RBG, resibufagenin]
tissue injury [1]: amelioration of tissue injury | preeclampsia [2]: prevents preeclampsia

C[C@]12CC[C@H](O)C[C@@]1(O)CC[C@@H]1[C@@H]2CC[C@]2(C)[C@@H](c3ccc(=O)oc3)C[C@H]3O[C@]132 [MBG, marinobufagenin]
vasoconstrictor action [3]: acts in vitro as a vasoconstrictor

— US20160299130A1, “Telocinobufagin (TCINO) in the Diagnosis and Pathogenesis of Preeclampsia, Traumatic Brain Injury and Acute Respiratory Distress Syndrome” (priority 2015, published 2016)
